What is called Cmax is the maximum level reached in the sampled fluid or tissue. A word on the Tmax: it is the time at which the peak concentration occurs. As a reminder, the solubility is the dissolved amount per volume that the medium holds. The low end stands for little dissolved substance, the high end for much dissolved substance.

The nature of series [1]: Single-dose pharmacokinetic study, artemether sublingual spray vs oral tablets. In kind it is in vivo, human. The following applies: for λz elimination rate constant, Plasma Artemether / Cmax / Tmax / AUC(0-t) / Vd/F / half-life: n = 16, mean ± SD; for Cmax / Tmax / AUC(0-t) / Vd/F / half-life / bioavailability: male, human, plasma; for AUC(0-t): read-out: AUC0-12, Plasma Artemether; for Vd/F: read-out: V/F apparent volume of distribution, Plasma Artemether; for half-life: read-out: t1/2 elimination half-life, Plasma Artemether (converted); for bioavailability: other: sublingual, ± S.D. How it is done: Trials were carried out on healthy male adult human volunteers (16 subjects per cohort), and subject to normal ethical approval. Three single-dose regimes according to the present invention were studied, and compared to a regime using oral-dosed tablets, as follows: Spray formulations of artemether were prepared as detailed above, and administered, on a single occasion, to a group of volunteers by the sublingual route. […] Following administration of each dosage regime, blood samples were taken from the subjects, and plasma concentrations of artemether and its immediate metabolite dihydroartemesinin were determined, in order to compare bioavailability by the two routes.

The nature of series [2]: Solubility enhancement by heat or essential oil (menthol) in Miglyol. The series is classed as physicochemical. The following applies: heat or menthol added (separate solutions).
Series [3] is described as follows: Repeat-dose artemether sublingual spray study (avoidance of autoinduction). Particulars: 30 mg artemether sublingual spray single on days 1 and 5, twice daily on days 2, 3 and 4. In kind it is in vivo, human. As to the method: A similar avoidance of autoinduction is expected with delivery by the transmucosal buccal or nasal route. In confidential trials, volunteers followed the following treatment: A single administration of 30 mg artemether sublingual spray 6 mg/actuation on days 1 and 5 following an overnight fast, and twice daily administrations of 30 mg artemether sublingual spray 3 mg/actuation on days 2, 3, and 4 following a morning or evening meal. Blood samples were collected for pharmacokinetic analysis at the following time points: Day 1: Predose, 0.25, 0.5, 0.75, 1, 1.5, 2, 2.5, 3, 4, 6, 8, and 12 h after dosing. Days 2, 3, and 4: pre morning dose and 0.5, 1, 2 and 4 h after morning dose and pre evening dose and 1 hour after evening dose. Day 5: Predose, 0.25, 0.5, 0.75, 1, 1.5, 2, 2.5, 3, 4, 6, 8, 12 h and 24 h after dosing.

A short description of series [4]: Solubility tests in Miglyol 810. The following applies: Miglyol 810, magnetic stirring; amount and volume per drug as in the block.
The next series is described as follows: physchem. Particulars: oil or lipid.
Where [5] appears, read: 15 mg, T1: single sublingual 15 mg Artemether sublingual spray, 3 mg per actuation.
[6] abbreviates: 30 mg, T2: single sublingual 30 mg Artemether sublingual spray, 3 mg per actuation.
Where [7] appears, read: 30 mg, T3: single sublingual 30 mg Artemether sublingual spray, 6 mg per actuation.
Where [8] appears, read: po, 30 mg, T4: single oral 30 mg Artemether Tablets, 10 mg per Tablet.

Converted amounts (≈) assume the structure as drawn. “Also recorded” adds a separate entry of the source. Where a name gives a salt, the structure may show the parent alone. Read-outs that look alike come from different tables or passages of the source.

For `CO[C@H]1O[C@@H]2O[C@@]3(C)CC[C@H]4[C@H](C)CC[C@@H]([C@H]1C)[C@@]24OO3` [Artemether], the “absorption (comparison of AUC0-12), sublingual spray vs oral tablet dosing” value in series [1] (12 hours following the doses, preliminary results) was “significant and surprisingly higher absorption”. The “λz elimination rate constant, Plasma Artemether” value in series [1] (T1: single sublingual 15 mg Artemether sublingual spray, 3 mg per actuation) worked out at 1.11 ± 0.40 h⁻¹; in series [1] (T2: single sublingual 30 mg Artemether sublingual spray, 3 mg per actuation) it was 0.56 ± 0.20 h⁻¹; in series [1] (T3: single sublingual 30 mg Artemether sublingual spray, 6 mg per actuation), 0.59 ± 0.25 h⁻¹; in series [1] (T4: single oral 30 mg Artemether Tablets, 10 mg per Tablet), 0.31 ± 0.15 h⁻¹. Besides, the Cmax is 16.1 ± 8.69 ng/mL in series [1] (setting [5]), 32.1 ± 16.4 ng/mL in series [1] (setting [6]), 35.2 ± 23.9 ng/mL in series [1] (setting [7]) and 10.1 ± 7.19 ng/mL in series [1] (setting [8]). Further, the Tmax in series [1] (setting [5]) is 1.7 ± 0.68 h; in series [1] (setting [6]), 1.73 ± 0.82 h; in series [1] (setting [7]) it was 1.67 ± 0.77 h; in series [1] (setting [8]), 1.02 ± 0.86 h. For the same compound, the AUC(0-t) in series [1] (setting [5]) came to 25.9 ± 13.9 ng·h/mL; in series [1] (setting [6]) it was 76.6 ± 43.1 ng·h/mL; in series [1] (setting [7]), 71.1 ± 41.1 ng·h/mL; in series [1] (setting [8]), 34.6 ± 21 ng·h/mL. Further, the Vd/F was found to be 680 ± 330 L in series [1] (setting [5]), 1000 ± 550 L in series [1] (setting [6]), 1010 ± 490 L in series [1] (setting [7]) and 3900 ± 2900 L in series [1] (setting [8]). Further, the half-life in series [1] (setting [5]) is 0.72 ± 0.3 h; in series [1] (setting [6]), 1.39 ± 0.49 h; in series [1] (setting [7]) it was 1.4 ± 0.59 h; in series [1] (setting [8]) it was 3.44 ± 4.26 h. The bioavailability in series [1] (15 mg, T1 (15 mg sublingual spray, 3 mg/actuation) vs T4 (30 mg oral tablets), read-out: F-value FT1-T4 (relative bioavailability of artemether)) worked out at 167 ± 60%; in series [1] (30 mg, T2 (30 mg sublingual spray, 3 mg/actuation) vs T4 (30 mg oral tablets), read-out: F-value FT2-T4 (relative bioavailability of artemether)), 224 ± 92%; in series [1] (30 mg, T3 (30 mg sublingual spray, 6 mg/actuation) vs T4 (30 mg oral tablets), read-out: F-value FT3-T4 (relative bioavailability of artemether)), 209 ± 69%.
In the case of `CCCC1O[C@@H]2C[C@H]3[C@@H]4CCC5=CC(=O)C=C[C@]5(C)[C@H]4[C@@H](O)C[C@]3(C)[C@]2(C(=O)CO)O1` (stereo partly drawn) [Budesonide], in series [2], the “solubility in Miglyol with the addition of heat or menthol” value was “appeared to dissolve; also recorded: soluble with the addition of heat or menthol”.
For `C[C@H]1[C@@H](O)O[C@@H]2O[C@@]3(C)CC[C@H]4[C@H](C)CC[C@@H]1[C@@]24OO3` [Dihydroartemesinin], the “pharmacokinetic analysis of plasma dihydroartemesinin, day 1 vs day 5” value in series [3] was “effectively identical response”.
For the compound `Oc1ccc2c3c1O[C@H]1[C@@H](O)CC[C@@]4(O)[C@@H](C2)N(CC2CCC2)CC[C@]314` [Nalbuphine HCl], in series [4], the “solubility in Miglyol” value was “not soluble”.
Take `C=CCN1CC[C@]23c4c5ccc(O)c4O[C@H]2C(=O)CC[C@@]3(O)[C@H]1C5` [Naloxone]: the “solubility in Miglyol” value in series [4] is “sparingly soluble”.
For `O=C1CC[C@@]2(O)[C@H]3Cc4ccc(O)c5c4[C@@]2(CCN3CC2CC2)[C@H]1O5` [Naltrexone Base], the “solubility in Miglyol” value in series [4] is recorded as “sparingly soluble”. The “solubility in Miglyol with the addition of heat or menthol” value in series [2] is “soluble with the addition of heat or menthol”.
With `CCCNC(C)C(=O)Nc1ccccc1C` (stereo not drawn) [Prilocaine Base], in the series “physchem”, the solubility is ~137 mg/mL (≈ 622 mM).
`COc1cccc(C2(O)CCCCC2CN(C)C)c1` (stereo not drawn) [Tramadol HCl]: in series [4], the “solubility in Miglyol” value is “insoluble”.
